BindingDB's records for doi:10.1021/acschembio.7b00543 (University of Delaware, 2017)

Tests used:
Assay in all cases: Fluorometric Ub-AMC Hydrolysis Assay
Conditions in all cases: pH 7.5; 25 °C
[1] = target: T1, Ubiquitin carboxyl-terminal hydrolase isozyme L3 (Homo sapiens, UniProt P15374)
T1 sequence (P15374 whole entry): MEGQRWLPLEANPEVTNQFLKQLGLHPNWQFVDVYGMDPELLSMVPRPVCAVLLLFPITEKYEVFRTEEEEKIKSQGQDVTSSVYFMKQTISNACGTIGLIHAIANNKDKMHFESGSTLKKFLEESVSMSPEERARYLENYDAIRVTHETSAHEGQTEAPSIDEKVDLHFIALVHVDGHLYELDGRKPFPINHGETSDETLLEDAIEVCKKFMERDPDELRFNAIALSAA
Method: (§1) 2 nM UCHL1, UCHL5, USP15, USP2, or 2 pM UCHL3 were incubated with increasing concentrations of inhibitor in assay buffer for 5 min at room temperature. To initiate the reaction, 1 uM Ub-AMC was added and the fluorescence signal was detected for 60 s with a 380 nm excitation and 460 nm emission filter set.

[2] = target: T2, Ubiquitin carboxyl-terminal hydrolase isozyme L5 (Homo sapiens, UniProt Q9Y5K5)
T2 sequence (Q9Y5K5 whole entry): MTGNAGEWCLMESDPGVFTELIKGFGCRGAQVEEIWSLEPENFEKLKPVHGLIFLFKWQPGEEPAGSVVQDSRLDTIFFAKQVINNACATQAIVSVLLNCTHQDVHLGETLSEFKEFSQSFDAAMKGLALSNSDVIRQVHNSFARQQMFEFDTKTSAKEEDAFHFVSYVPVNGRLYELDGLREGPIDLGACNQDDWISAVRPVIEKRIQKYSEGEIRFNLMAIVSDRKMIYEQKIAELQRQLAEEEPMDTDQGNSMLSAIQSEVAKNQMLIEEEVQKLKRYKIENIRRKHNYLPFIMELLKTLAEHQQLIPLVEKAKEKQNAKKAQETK
Method: as §1

[3] = target: T3, Ubiquitin carboxyl-terminal hydrolase 15 (Homo sapiens, UniProt Q9Y4E8)
T3 sequence (Q9Y4E8 whole entry): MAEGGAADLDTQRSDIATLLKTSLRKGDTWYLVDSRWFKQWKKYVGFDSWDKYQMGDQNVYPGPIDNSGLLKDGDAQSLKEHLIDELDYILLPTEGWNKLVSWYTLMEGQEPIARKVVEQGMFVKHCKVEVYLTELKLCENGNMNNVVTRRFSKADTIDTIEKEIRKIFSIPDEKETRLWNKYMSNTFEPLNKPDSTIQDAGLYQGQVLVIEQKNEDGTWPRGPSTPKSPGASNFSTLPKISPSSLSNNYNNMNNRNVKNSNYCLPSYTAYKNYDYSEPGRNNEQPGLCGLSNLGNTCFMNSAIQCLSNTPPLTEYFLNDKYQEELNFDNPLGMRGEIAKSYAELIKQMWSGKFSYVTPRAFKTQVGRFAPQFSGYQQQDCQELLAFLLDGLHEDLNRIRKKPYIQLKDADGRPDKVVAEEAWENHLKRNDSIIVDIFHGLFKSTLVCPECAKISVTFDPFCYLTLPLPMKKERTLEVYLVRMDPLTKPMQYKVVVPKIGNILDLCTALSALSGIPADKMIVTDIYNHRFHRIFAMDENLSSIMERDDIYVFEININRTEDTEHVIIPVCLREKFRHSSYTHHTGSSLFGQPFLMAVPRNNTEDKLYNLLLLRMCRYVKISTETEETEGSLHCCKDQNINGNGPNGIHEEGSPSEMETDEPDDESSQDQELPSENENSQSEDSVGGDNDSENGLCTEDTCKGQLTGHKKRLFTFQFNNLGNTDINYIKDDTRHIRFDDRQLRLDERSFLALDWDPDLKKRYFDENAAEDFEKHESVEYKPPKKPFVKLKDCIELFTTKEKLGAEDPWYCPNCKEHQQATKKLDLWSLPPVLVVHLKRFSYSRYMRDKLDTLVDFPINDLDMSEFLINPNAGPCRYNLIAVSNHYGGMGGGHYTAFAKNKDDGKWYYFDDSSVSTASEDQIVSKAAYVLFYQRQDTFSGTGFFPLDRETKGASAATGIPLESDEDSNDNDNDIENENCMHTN
Method: as §1

[4] = target: T4, Ubiquitin carboxyl-terminal hydrolase 2 (Homo sapiens, UniProt O75604)
T4 sequence (O75604 whole entry): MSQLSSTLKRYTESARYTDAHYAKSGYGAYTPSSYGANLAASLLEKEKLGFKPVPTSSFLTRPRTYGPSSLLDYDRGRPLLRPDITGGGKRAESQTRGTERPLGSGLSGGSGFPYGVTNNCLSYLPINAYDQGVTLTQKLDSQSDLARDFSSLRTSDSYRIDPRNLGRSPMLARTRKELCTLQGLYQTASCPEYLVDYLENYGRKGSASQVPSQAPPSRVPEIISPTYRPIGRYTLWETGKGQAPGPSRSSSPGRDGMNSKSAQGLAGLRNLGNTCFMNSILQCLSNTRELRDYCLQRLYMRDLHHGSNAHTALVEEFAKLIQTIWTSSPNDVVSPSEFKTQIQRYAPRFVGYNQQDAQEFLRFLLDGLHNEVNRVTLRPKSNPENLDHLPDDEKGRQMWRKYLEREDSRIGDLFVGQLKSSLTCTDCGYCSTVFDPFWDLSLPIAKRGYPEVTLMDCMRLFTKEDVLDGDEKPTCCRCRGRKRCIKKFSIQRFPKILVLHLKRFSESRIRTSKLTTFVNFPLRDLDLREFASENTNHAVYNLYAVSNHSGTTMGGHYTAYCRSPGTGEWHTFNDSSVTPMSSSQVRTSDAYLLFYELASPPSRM
Method: as §1

[5] = target: T5, Ubiquitin carboxyl-terminal hydrolase isozyme L1 (Homo sapiens, UniProt P09936)
T5 sequence (P09936 whole entry): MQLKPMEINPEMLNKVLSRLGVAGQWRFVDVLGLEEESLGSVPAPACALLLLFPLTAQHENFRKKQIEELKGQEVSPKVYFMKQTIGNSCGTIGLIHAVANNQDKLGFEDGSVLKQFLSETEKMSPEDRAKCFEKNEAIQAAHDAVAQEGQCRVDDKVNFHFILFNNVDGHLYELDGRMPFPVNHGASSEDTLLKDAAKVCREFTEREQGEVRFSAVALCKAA
Method: as §1

CC(=O)ON=C1C(=O)N(Cc2cc(Cl)ccc2Cl)c2ccc(Cl)cc21 [5-Chloro-1-[(2,5-dichlorophenyl)methyl]-1H-indole-2,3-dione 3-(O-acetyloxime)]
IC50 [1]: 14.1 µM
IC50 [2]: 16.2 µM

CO[C@H]1/C=C/O[C@@]2(C)Oc3c(C)c(O)c4c(c3C2=O)C(=O)/C(=C/NN2CCN(C)CC2)C(=C4O)NC(=O)/C(C)=C\C=C\[C@H](C)[C@H](O)[C@@H](C)[C@@H](O)[C@@H](C)[C@H](OC(C)=O)[C@@H]1C [Rifampicin]
IC50 [3]: 46.1 µM
IC50 [4]: 21.2 µM
IC50 [5]: 19.5 µM
IC50 [1]: 24.8 µM
IC50 [2]: 62.8 µM

CC1=C(O)C(=O)C=C2C1=CC=C1[C@@]2(C)CC[C@@]2(C)[C@@H]3C[C@](C)(C(=O)O)CC[C@]3(C)CC[C@]12C [Celastrol]
IC50 [3]: 32.8 µM
IC50 [4]: 28.7 µM
IC50 [5]: 6.8 µM
IC50 [1]: 32.1 µM
IC50 [2]: 56.6 µM

Cc1cnc(-c2ccccc2C(C)C)nc1NCc1ccc(-n2ccnn2)cc1
IC50 [4]: > 114 µM
IC50 [1]: > 114 µM
IC50 [2]: > 114 µM

CC(=O)Oc1c2c(c(CC=C(C)C)c3c1C(=O)C1=C[C@@H]4CC5C(C)(C)OC(C/C=C(\C)C(=O)O)(C4=O)[C@@]15O3)OC(C)(CCC=C(C)C)C=C2 (stereo not given in full)
IC50 [3]: 11.1 µM
IC50 [4]: 18.2 µM
IC50 [5]: 5.4 µM
IC50 [1]: 15.4 µM
IC50 [2]: 36.5 µM
